The target in assay [1] is human monoclonal nicotine-specific antibody IgG2-N049 (HCVR SEQ ID NO:39, LCVR SEQ ID NO:41). The protocol: (§1) Affinity of antibodies for (S)-(-)-nicotine was determined by equilibrium dialysis using a DispoEquilibriumDialyzer (Harvard Biosciences). Two chambers of the dialyzer were separated by a membrane (10'000 Da cut-off). […] Concentrations of tritium-labeled (S)-(-)-nicotine (Amersham) ranging from 3 to 444 nM were used. Equilibrium dialysis was allowed to proceed for 48-72 h. Aliquots from both sides of the chamber were taken and radioactivity measured in a scintillation counter. Radioactivity corresponding to antibody-bound (S)-(-)-nicotine was calculated by subtracting the radioactivity measured for the chamber containing no antibody from the one containing the antibody. The free (S)-(-)-nicotine concentration was determined from the radioactivity measured for the chamber containing no antibody. The equilibrium dissociation constant (Kd) was derived from the fit of a one-site binding model to the measured bound radioactivity as a function of the free (S)-(-)-nicotine concentration. […]
(§2) We next determined the affinities of mAbs IgG2-F018, -F063, -J004, -J042 and-N049 for the (R)-(+)-isomer of nicotine. This stereoisomer is present in the tobacco plant. In addition, it can be formed by the combustion process during smoking and has qualitatively similar activities on the central nervous system as (S)-(-)-nicotine (Hukkanen J. et al., 2005, Pharmacol. Rev. 57, 79-115). Thus, the binding of a fixed concentration of tritium-labeled (S)-(-)-nicotine (F018: 56 nM; F063, J004, J042, N049: 111 nM) to each of the antibodies was measured by equilibrium dialysis in the presence of increasing concentrations of unlabeled (R)-(+)-nicotine (1 nM to 100 µM). The equilibrium dissociation constant (Kd) was derived from the fit of a one-site competition model to the measured bound radioactivity as a function of the (R)-(+)-nicotine concentration. […] Table 5. Dissociation constants Kd (nM) of antibody-(R)-(+)-nicotine interactions measured by equilibrium dialysis.

For assay [2], the target named is human monoclonal nicotine-specific antibody IgG2-F063 (HCVR SEQ ID NO:28, LCVR SEQ ID NO:31). The protocol: as §1, §2
Assay [3] deals with human monoclonal nicotine-specific antibody IgG2-J042 (HCVR SEQ ID NO:28, LCVR SEQ ID NO:37). The protocol:
as §1, §2

In assay [4] the target is human monoclonal nicotine-specific antibody IgG2-J004 (HCVR SEQ ID NO:33, LCVR SEQ ID NO:35). How it is done:
as §1, §2

Assay [5] addresses human monoclonal nicotine-specific antibody IgG2-F018 (HCVR SEQ ID NO:24, LCVR SEQ ID NO:26). In words: Equilibrium dialysis, affinity and competition. Format: binding. Particulars: for Cross-reactivity: competition with tritium-labeled (S)-(-)-nicotine for binding to IgG2-F018: 56 nM tritium-labeled (S)-(-)-nicotine, IgG2-F018 50 nM, unlabeled compound 1 nM to 100 µM, acetylcholine even at a 4000 fold molar excess. How it is done:
Figure 1. Specificity of IgG2-F018. The binding of tritium-labeled (-)-nicotine (56 nM) to IgG2-F018 (50 nM) was measured by equilibrium dialysis in the presence of increasing concentrations of unlabeled (-)-nicotine, (-)-cotinine or acetylcholine. Averages of two independent experiments are given with standard deviation.
as §1
Cross-reactivity of mAb IgG2-F018 to (-)-cotinine and acetylcholine was determined by co-incubation of 10 fold serial dilutions of these compounds (1 nM to 100 µM) with 56 nM tritium-labeled (S)-(-)-nicotine in the equilibrium dialysis chambers as described above (Figure 1).
as §2

Assay [6] has as its target human monoclonal nicotine-specific antibody IgG2-I022 (HCVR SEQ ID NO:43, LCVR SEQ ID NO:45). Conditions: read-out: Dissociation constant Kd, (S)-(-)-nicotine; IgG2 7.5 µg/ml in PBS/2% BSA; tritium-labeled (S)-(-)-nicotine 3 to 444 nM; 48-72 h; mean ± SD of at least 2 independent experiments. How it is done:
as §1

In assay [7] the target is human monoclonal nicotine-specific antibody N049, scFv-Fc fusion (scFv SEQ ID NO:68; HCVR SEQ ID NO:39, LCVR SEQ ID NO:41). Particulars: read-out: Dissociation constant Kd, (S)-(-)-nicotine; scFv-Fc 5.4 µg/ml in PBS/2% BSA; tritium-labeled (S)-(-)-nicotine 3 to 444 nM; 48-72 h; mean ± SD of at least 2 independent experiments. The protocol: as §1
For assay [8], the target named is human monoclonal nicotine-specific antibody IgG2-N038 (HCVR SEQ ID NO:47, LCVR SEQ ID NO:49). Particulars: read-out: Dissociation constant Kd, (S)-(-)-nicotine; IgG2 7.5 µg/ml in PBS/2% BSA; tritium-labeled (S)-(-)-nicotine 3 to 444 nM; 48-72 h; measured only once. How it is done:
as §1

Assay [9] addresses human monoclonal nicotine-specific antibody F063, scFv-Fc fusion (scFv SEQ ID NO:62; HCVR SEQ ID NO:28, LCVR SEQ ID NO:31). Particulars: read-out: Dissociation constant Kd, (S)-(-)-nicotine; scFv-Fc 5.4 µg/ml in PBS/2% BSA; tritium-labeled (S)-(-)-nicotine 3 to 444 nM; 48-72 h; mean ± SD of at least 2 independent experiments. The protocol: as §1
Assay [10] concerns the target human monoclonal nicotine-specific antibody J004, scFv-Fc fusion (scFv SEQ ID NO:64; HCVR SEQ ID NO:33, LCVR SEQ ID NO:35). Particulars: read-out: Dissociation constant Kd, (S)-(-)-nicotine; scFv-Fc 5.4 µg/ml in PBS/2% BSA; tritium-labeled (S)-(-)-nicotine 3 to 444 nM; 48-72 h; mean ± SD of at least 2 independent experiments. How it is done: as §1
Assay [11] deals with human monoclonal nicotine-specific antibody J042, scFv-Fc fusion (scFv SEQ ID NO:66; HCVR SEQ ID NO:28, LCVR SEQ ID NO:37). Conditions: read-out: Dissociation constant Kd, (S)-(-)-nicotine; scFv-Fc 5.4 µg/ml in PBS/2% BSA; tritium-labeled (S)-(-)-nicotine 3 to 444 nM; 48-72 h; mean ± SD of at least 2 independent experiments. The protocol:
as §1

In assay [12] the target is human monoclonal nicotine-specific antibody F018, scFv-Fc fusion (scFv SEQ ID NO:60; HCVR SEQ ID NO:24, LCVR SEQ ID NO:26). Particulars: read-out: Dissociation constant Kd, (S)-(-)-nicotine; scFv-Fc 5.4 µg/ml in PBS/2% BSA; tritium-labeled (S)-(-)-nicotine 3 to 444 nM; 48-72 h; mean ± SD of at least 2 independent experiments. The protocol: as §1
The target of assay [13] is human monoclonal nicotine-specific antibody I022, scFv-Fc fusion (scFv SEQ ID NO:70; HCVR SEQ ID NO:43, LCVR SEQ ID NO:45). Particulars: read-out: Dissociation constant Kd, (S)-(-)-nicotine; scFv-Fc 5.4 µg/ml in PBS/2% BSA; tritium-labeled (S)-(-)-nicotine 3 to 444 nM; 48-72 h; mean ± SD of at least 2 independent experiments. How it is done:
as §1

Assay [14] deals with human monoclonal nicotine-specific antibody N038, scFv-Fc fusion (scFv SEQ ID NO:72; HCVR SEQ ID NO:47, LCVR SEQ ID NO:49). Conditions: read-out: Dissociation constant Kd, (S)-(-)-nicotine; scFv-Fc 5.4 µg/ml in PBS/2% BSA; tritium-labeled (S)-(-)-nicotine 3 to 444 nM; 48-72 h; mean ± SD of at least 2 independent experiments. How it is done: as §1
Assay [15] concerns the target polyclonal antibodies against (S)-(-)-nicotine. Particulars: read-out: affinity of polyclonal antibodies against (S)-(-)-nicotine; Maurer P. et al., 2005; cited from earlier work.
Setting [16] is: read-out: Dissociation constant Kd of antibody-(R)-(+)-nicotine interaction, competition with 111 nM tritium-labeled (S)-(-)-nicotine, unlabeled (R)-(+)-nicotine 1 nM to 100 µM, one-site competition model.
The mark [17] stands for this setting: read-out: Dissociation constant Kd, (S)-(-)-nicotine, IgG2 7.5 µg/ml in PBS/2% BSA, tritium-labeled (S)-(-)-nicotine 3 to 444 nM, 48-72 h, mean ± SD of at least 2 independent experiments.

These results are taken from patent EP2222702B1, “HUMAN […] SPECIFIC ANTIBODIES” (Cytos Biotechnology AG, priority 2007, dated 2009).

Values joined by “and” are separate entries in the source; they are usually repeats but may differ in a detail not shown here. Identical values can stand only once. Like-named read-outs stand apart in the source and are kept apart here.

As to `CN1CCC[C@@H]1c1cccnc1` [(R)-(+)-nicotine], the Kd in assay [1] (setting [16]) was determined as 10.5 nM; in [2] (setting [16]) it was 6.6 nM; in assay [3] (setting [16]) it was 7.7 nM; in assay [4] (setting [16]), 12.6 nM; in [5] (competition with 56 nM tritium-labeled (S)-(-)-nicotine, unlabeled (R)-(+)-nicotine 1 nM to 100 µM, one-site competition model, read-out: Dissociation constant Kd of antibody-(R)-(+)-nicotine interaction), 3.1 nM.
Consider `CN1CCC[C@H]1c1cccnc1` [(S)-(-)-nicotine], for which the Kd in assay [6] was 89.9 ± 9.8 nM; in [7], 72.7 ± 5.6 nM; in [8], 744 nM; in [9], 70.5 ± 14 nM; in [10], 33.3 ± 2 nM; in assay [11], 47 ± 3.1 nM. Besides, the Kd stood at 11.5 ± 1.5 nM in [12]; 42.5 ± 17 nM in assay [13]; 686 ± 58 nM in [14]; 35.6 ± 3.5 nM in [1] (setting [17]); 31.4 ± 13 nM in [2] (setting [17]); 30.2 ± 11 nM in assay [3] (setting [17]). In addition, the Kd in assay [4] (setting [17]) was 64.5 ± 2.2 nM; in [15], 30 to 70 nM; in assay [5] (IgG2 7.5 µg/ml in PBS/2% BSA, tritium-labeled (S)-(-)-nicotine 3 to 444 nM, 48-72 h, mean ± SD of at least 2 independent experiments, read-out: Dissociation constant Kd, (S)-(-)-nicotine), 7 nM and 7.4 nM. Moreover, in assay [5], the “Cross-reactivity: competition with tritium-labeled (S)-(-)-nicotine for binding to IgG2-F018” value is reported as “readily displaced”.
As to `CN1C(=O)CC[C@H]1c1cccnc1` [(-)-cotinine], in [5], the “Cross-reactivity: competition with tritium-labeled (S)-(-)-nicotine for binding to IgG2-F018” value is listed as “did not effectively compete”. Further, the “Binding strength relative to (S)-(-)-nicotine (fold less strongly), estimated from the IC50 observed” value in assay [5] (equilibrium dialysis competition with 56 nM tritium-labeled (S)-(-)-nicotine) is on record as “about 1000 fold”.
